Measured values: ChEMBL document CHEMBL3243945, “Antiinflammatory activity of isomeric phenylnaphthaleneacetic acids” (J Med Chem, 1977)

Tests used:
Cavia porcellus = assay: Antiinflammatory activity in depilated albino guinea pig assessed as suppression of UV radiation-induced skin erythema compound administered via gavage measured 2 hrs after UV irradiation exposure; assay type: functional; settings: light or radiation study, po, read-out: MED
[1] = Dissociation constant, pKa of the compound in DMF-H2O (6.7% v/v) by titration method; assay type: physicochemical

Molecule O=C(O)Cc1ccc2ccc(-c3ccccc3)cc2c1 has a minimal effective dose (Cavia porcellus) of over 50 mg/kg and a pKa [1] of 6.7.
O=C(O)Cc1cc(-c2ccccc2)c2ccccc2c1 gave a minimal effective dose (Cavia porcellus) of 100 mg/kg and a pKa [1] of 7.
Work on O=C(O)Cc1cccc2cc(-c3ccccc3)ccc12 yielded a minimal effective dose (Cavia porcellus) of 25 mg/kg and a pKa [1] of 6.9.
In the case of O=C(O)Cc1c(-c2ccccc2)ccc2ccccc12, the minimal effective dose (Cavia porcellus) is reported as over 50 mg/kg and the pKa [1] is reported as 6.9.
O=C(O)Cc1ccc2c(-c3ccccc3)cccc2c1 gave a minimal effective dose (Cavia porcellus) of 3.1 mg/kg and a pKa [1] of 6.6.
O=C(O)Cc1cccc2c(-c3ccccc3)cccc12 gave a minimal effective dose (Cavia porcellus) of 0.1 mg/kg and a pKa [1] of 6.7.
For O=C(O)Cc1cc2ccccc2cc1-c1ccccc1, the minimal effective dose (Cavia porcellus) was over 200 mg/kg and the pKa [1] was 7.1.
O=C(O)Cc1ccc(-c2ccccc2)c2ccccc12 showed a minimal effective dose (Cavia porcellus) of 0.1 mg/kg and a pKa [1] of 6.8.
Work on O=C(O)Cc1cccc2ccc(-c3ccccc3)cc12 yielded a minimal effective dose (Cavia porcellus) of 100 mg/kg and a pKa [1] of 6.9.
Molecule O=C(O)Cc1ccc2ccccc2c1-c1ccccc1 has a minimal effective dose (Cavia porcellus) of over 200 mg/kg and a pKa [1] of 7.2.
For O=C(O)Cc1ccc2cc(-c3ccccc3)ccc2c1, the minimal effective dose (Cavia porcellus) was 3.1 mg/kg and the pKa [1] was 6.6.
O=C(O)Cc1ccc2cccc(-c3ccccc3)c2c1 showed a minimal effective dose (Cavia porcellus) of over 100 mg/kg and a pKa [1] of 6.8.
In the case of CCCCC1C(=O)N(c2ccccc2)N(c2ccccc2)C1=O [PHENYLBUTAZONE], the minimal effective dose (Cavia porcellus) is reported as 5.3 mg/kg.
O=C(O)Cc1cc(-c2ccccc2)cc2ccccc12 showed a minimal effective dose (Cavia porcellus) of 50 mg/kg and a pKa [1] of 6.7.
In the case of COc1ccc2c(c1)c(CC(=O)O)c(C)n2C(=O)c1ccc(Cl)cc1 [INDOMETHACIN], the minimal effective dose (Cavia porcellus) is reported as 1.7 mg/kg.
With Cc1ccc(Cl)c(Nc2ccccc2C(=O)O)c1Cl [MECLOFENAMIC ACID] the minimal effective dose (Cavia porcellus) was 0.4 mg/kg.
